Laboratory results published in US7598244B2, “[1,2,4]triazolo[1,5,a]pyrimidin-2-ylurea derivative and use thereof” (Nippon Kayaku Kabushiki Kaisha, priority 2003, dated 2009).

Experiments:
[1] = tested on: MHC class I molecules of human peripheral blood-derived dendritic cells; test: Effect on expression of MHC class I molecules from human peripheral blood-derived dendritic cells; format: cell-based; conditions: dendritic cells matured with TNF-α, 3 days; read-out: EC50 (reduction of 50% of the number of cells wherein MHC class I molecules were highly expressed)
Method in brief: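 Human blood CD14+ monocytes differentiated 7 days with GM-CSF 500 U/ml and IL-4 50 ng/ml into immature dendritic cells. These were matured with 100 U/ml TNF-α plus test compound for 3 days at 37 °C. MHC class I-high fraction measured by flow cytometry (W6/32 antibody); EC50 is concentration giving 50% reduction versus untreated.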

BALB/c mice = test: Effect on mouse plaque forming cells (PFCs) to sheep erythrocytes; format: in vivo; conditions: Oral, 50 mg/kg/single administration, twice a day for 4 days
Description: Effect on Mouse Plaque Forming Cells (PFCs)
Sheep erythrocytes (Nippon Seibutsu Zairyo Center, Co., Ltd.) were intraperitoneally administered to each of BALB/c mice (Charles River Japan, Inc.; female; 8-week-old) at an amount of 1.0×10^8 cells. Thereafter, a test compound was administered thereto twice a day for 4 days after the first administration (only once on the first day) (n=4). On the day subsequent to completion of the administration of the test compound, splenic cells were prepared from the mouse, and the number of PFCs to the sheep erythrocytes was counted by the method of Cunninham (Cunninham, A. J. et al., Immunology, vol. 14, p. 599 (1968)). The number of PFCs per number of splenic cells of 1.0×10^6 was obtained. The reduction rate of the number of PFC in the mouse to which the test compound had been administered, to the number of PFCs in a control mouse to which the test compound had not been administered but only a solvent had been administered, was calculated using the following formula (4).
[formula] • Eexp: The number of PFCs per 1×10^6 splenic cells of mouse to which test compound was administered • Cexp: The number of PFCs per 1×10^6 splenic cells of mouse to which solvent was administered

[2] = tested on: (C57BL/6XB6. C—H2^bml) F1 mice; test: Life-lengthening effect on graft versus host disease (GVHD); format: in vivo, mouse; conditions: oral, once a day
Description: Life-Lengthening Effect on Graft Versus Host Disease (GVHD)
The present test was carried out by modification of the method of Jonathan et al. (Jonathan et al., Blood, p. 93 (1999)). First, 6.0 Gy X-ray was applied to (C57BL/6XB6. C—H2^bml) F1 mice (produced by mating 6XB6.C—H2^bml mice (Jackson Laboratory) with C57BL/6 mice (Charles River Japan); female; 8 to 12-week-old). Thereafter, CD8 positive T cells (1.25×10^6 cells) prepared from the splenic cells of C57BL/6 mice (Charles River Japan; female; 8-week-old) were intravenously injected into the above (C57BL/6XB6. C—H2^bml) F1 mice. From the day before the injection, the test compound having each diluted concentration or 0.5% carboxymethyl cellulose used as a solvent was orally administered to the mice once a day for 7 to 30 consecutive days. The day on which the transplantation was conducted was defined as day 0. Based on the median of the survival days of each group, the prolongation rate of such survival dates was calculated using the following formula (7). Thus, the effect of the test compound on GVHD was analyzed.
[formula] • Eexp: Median of survival days of test compound administration group • Cexp: Median of survival days of solvent administration group

CD80 = test: Expression of antigen-presenting and costimulatory molecules of human peripheral blood-derived dendritic cells: CD80; format: cell-based
Description: Action on Expression of Antigen-Presenting Molecules and Costimulatory Molecules of Human Peripheral Blood-Derived Dendritic Cells
The dendritic cells obtained by the same method as in Test Example 2 were suspended in RPMI 1640 comprising 10% FCS containing 500 U/ml GM-CSF, 50 ng/ml IL-4, and 100 U/ml human recombinant tumor necrosis factor (2.5×10^6 cells/ml). Thereafter, the suspension was inoculated into a 6-well plate at an amount of 2.0 ml/well, and the test compound was then added thereto. The mixture was cultured at 37° C. for 3 days in an incubator containing 5% carbon dioxide. Thereafter, the suspended cells were recovered. The cells were then stained with fluoroisothiocyanate-labeled mouse monoclonal antibodies reacting with MHC class I (Bechman Coulter), CD1a (Immunotech), CD40 (Pharmingen), CD80 (Pharmingen), and CD83 (Immunotech). Thereafter, mean fluorescence intensity and the ratio of positive cells were measured by flow cytometry. The expression level was calculated by the formula “the mean fluorescence intensity x the ratio of positive cells,” and the inhibition rate of the surface antigen expression level of dendritic cells was then obtained by the following formula (8).
[formula] • Eexp: Expression level of surface antigens of dendritic cells cultured in the presence of test compound • Cexp: Expression level of surface antigens of dendritic cells cultured in the absence of test compound

MHC class II = test: Expression of antigen-presenting and costimulatory molecules of human peripheral blood-derived dendritic cells: MHC class II; format: cell-based

## CC(C)NC(=O)Nc1nc2nccc(-c3cccs3)n2n1 [Example 029, 1-isopropyl-3-(7-thiophen-2-yl[1,2,4]triazolo[1,5-a]pyrimidin-2-yl)urea]
[1]
  EC50: 480 nM
BALB/c mice
  Reduction rate (%) of number of PFCs: 49.3%
[2]; 25 mg/kg/single administration
  Lengthening rate of survival days (%): 75%
[2]; 100 mg/kg/single administration
  Lengthening rate of survival days (%): 200%
CD80; Analyte 1, 3 days
  Expression inhibition rate by test compound (%), CD80: 83.8%
CD80; Analyte 2, 3 days
  Expression inhibition rate by test compound (%), CD80: 12.1%
CD80; Analyte 3, 3 days
  Expression inhibition rate by test compound (%), CD80: 26.8%
MHC class II; Analyte 1, 3 days
  Expression inhibition rate by test compound (%), MHC class II: 65.6%
MHC class II; Analyte 2, 3 days
  Expression inhibition rate by test compound (%), MHC class II: 93.3%
MHC class II; Analyte 3, 3 days
  Expression inhibition rate by test compound (%), MHC class II: 50.2%
